Measurements: PMC6081452, “Downstream Products are Potent Inhibitors of the Heparan Sulfate 2-O-Sulfotransferase” (Scientific Reports, 2018)
Residue numbers refer to the chain shown, from its start.

Key:
Design in all cases: species or system chicken
[1] = biological target: T1, non-glyc-HS2ST R189A (Gallus gallus, UniProt Q76KB1, R189A); assay: BLI equilibrium binding, non-glyc-HS2ST R189A; details: BLI saturation binding curves, n = 3, ± standard error of fit; — = response too weak to fit
T1 construct: made in house; host or cells: E. coli Origami B (DE3)
T1 sequence (Q76KB1 69-356 R189A limits assumed): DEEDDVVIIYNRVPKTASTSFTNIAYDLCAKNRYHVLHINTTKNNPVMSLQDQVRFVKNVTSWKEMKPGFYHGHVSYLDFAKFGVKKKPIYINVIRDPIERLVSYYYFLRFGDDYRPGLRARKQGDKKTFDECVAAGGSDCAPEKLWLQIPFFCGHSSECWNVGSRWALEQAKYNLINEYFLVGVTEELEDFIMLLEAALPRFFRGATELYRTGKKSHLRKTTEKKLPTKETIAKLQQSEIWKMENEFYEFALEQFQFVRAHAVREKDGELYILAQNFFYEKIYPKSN
From the text: (§1) To assess whether the inhibitory compounds interact with the active site, point mutations were introduced in non-glyc-HS2ST (Fig. 4a). Four mutants of the catalytic residue (H142A/E/R/K) were created, along with a mutation of the residue that facilitates 2-O-sulfation of IdoA residues (R189A)[27]. Additionally, a negative control (NC) was generated containing multiple mutations of positively charged residues (R189A, R80E, and R184E) that reduced the net charge of each protein monomer by 5. The extent that the mutations affected affinity provided an indication that the ligand had been bound in the active site (Table 1 and Supplementary Fig. 1). While R189A markedly diminished the affinity for all compounds, the NC mutations reduced affinity to immeasurable levels. Removal of the catalytic side chain (H142A) enhanced the affinity of each compound, compared to the WT, by approximately 2–3-fold. Addition of a positive charge at this location (H142K/R) further enhanced the affinity for each compound, so much so that a KD value could be measured even for 2. The H142E mutation diminished the affinity of 5 by half compared to WT, but its effects were less significant for binding to 3 or 4.
(§2) The chicken HS2ST-Maltose Binding Protein (MBP) fusion protein was expressed and purified according to previous studies. The fusion protein was transformed into E. coli Origami B (DE3) cells, cultured at 37 °C until OD600 reached 0.5, then induced with isopropyl-β-D-thiogalactopyranoside and allowed to grow overnight at 20 °C. Cells were sonicated, followed by a two-step purification procedure. Whole-cell supernatant was passed through an amylose column with Tris buffer (25 mM Tris, 500 mM NaCl, pH 7.5). An elution buffer consisted of Tris Buffer with 40 mM Maltose. The amylose column eluent was concentrated and loaded on a Superdex 200 Increase 10/300 GL with PBS buffer (10 mM sodium phosphate, 150 mM NaCl, pH 7.8) to separate trimeric protein from aggregate and independent MBP (Supplementary Fig. 4). All reported mutations formed homotrimeric complexes according to the SEC profiles, including the negative control (NC = R189A/R80E/R184E). Protein concentration was assessed via UV at 280 nm (MW of trimer ~210 KDa, extinction coefficient ~119,000 M^−1 cm^−1 according to ExPASy ProtParam webtool[56]). The trimeric protein preparation was adjusted to 5% glycerol and stored at −20 °C until use. Additional non-glyc-HS2ST constructs were created with the Q5® Mutagenesis kit (New England Biolabs Inc.; cat. # E0554S) and sequenced at the Georgia Genomics Facility at the University of Georgia.
(§3) The Octet® RED96 system (FortéBio Inc.) was employed to detect the affinity of the enzymes for specific HS targets. […]

[2] = biological target: T2, non-glyc-HS2ST H142R (Gallus gallus, UniProt Q76KB1, H142R); assay: BLI equilibrium binding, non-glyc-HS2ST H142R; details: BLI saturation binding curves, n = 3, ± standard error of fit
T2 construct: made in house; host or cells: E. coli Origami B (DE3)
T2 sequence (Q76KB1 69-356 H142R limits assumed): T1 sequence (Q76KB1 69-356 R189A limits assumed) with H74R, A121R
From the text: as §1, §2, §3

[3] = biological target: T3, non-glyc-HS2ST H142E (Gallus gallus, UniProt Q76KB1, H142E); assay: BLI equilibrium binding, non-glyc-HS2ST H142E; details: for Kd: BLI saturation binding curves, n = 3, ± standard error of fit, — = response too weak to fit
T3 construct: made in house; host or cells: E. coli Origami B (DE3)
T3 sequence (Q76KB1 69-356 H142E limits assumed): T1 sequence (Q76KB1 69-356 R189A limits assumed) with H74E, A121R
From the text: as §1, §2
The Octet® RED96 system (FortéBio Inc.) was employed to detect the affinity of the enzymes for specific HS targets. Due to the small size of the glycan and the deep HS2ST binding cavity, the glycan and protein were treated as ligand and analyte, respectively. Varyingly sulfated HS fragments conjugated to biotin linkers were purchased from Glycan Therapeutics Inc. with purities greater than 93% according to HPLC (sequences located in Supplementary Table 1). The glycans were immobilized onto streptavidin (SA) labeled biosensors (FortéBio; cat. #18–5019) at 0.5 µg/mL. Experiments were performed at 25 °C in PBS Buffer (10 mM sodium phosphate, 150 mM NaCl, pH 7.8) with a final concentration of 1X Pall Kinetics buffer (FortéBio Inc; cat. #18–1092). Fresh biosensors and protein samples were used for each measurement (no regeneration step). […]

[4] = biological target: T4, non-glyc-HS2ST H142K (Gallus gallus, UniProt Q76KB1, H142K); assay: BLI equilibrium binding, non-glyc-HS2ST H142K; details: BLI saturation binding curves, n = 3, ± standard error of fit
T4 construct: made in house; host or cells: E. coli Origami B (DE3)
T4 sequence (Q76KB1 69-356 H142K limits assumed): T1 sequence (Q76KB1 69-356 R189A limits assumed) with H74K, A121R
From the text: as §1, §2, §3

Substance	Kd [1] [nM]	Kd [2] [nM]	Kd [3] [nM]	Kd [4] [nM]	Diminution of affinity by H142E compared to WT ([3]; non-glyc-HS2ST H142E versus WT, BLI)
GlcNS-GlcA-GlcNS-IdoA2S-GlcNS-GlcA~ [Compound 2]	> 500	136 ± 20	> 500	198 ± 34	
GlcNS6S-GlcA-GlcNS6S-GlcA-GlcNS6S-GlcA~ [Compound 5]	> 500	13 ± 1	140 ± 11	22 ± 2	half
GlcNS6S-GlcA-GlcNS6S-IdoA2S-GlcNS6S-GlcA~ [Compound 3]	448 ± 124	12 ± 1	41 ± 4	15 ± 2	
GlcNS6S-GlcA-GlcNS3S6S-IdoA2S-GlcNS6S-GlcA~ [Compound 4]	63 ± 5	10 ± 1	19 ± 3	11 ± 2	
